Data on eight compounds can be found in paper PMC10647736, “Aza Analogs of the TRPML1 Inhibitor Estradiol Methyl Ether (EDME)” (Molecules, 2023).

Entries after “also recorded” stand apart in the source; their conditions may differ. Like-named read-outs stand apart in the source and are kept apart here.

Data set [1] has as its target T1, hTRPML1ΔNC-YFP, a plasma membrane variant of wild-type TRPML1 (Homo sapiens, UniProt Q9GZU1). Set-up: method as in PMID 33859333. The following applies: previous work, cited from earlier work; for IC50: hTRPML1ΔNC-YFP, read-out: IC50 TRPML1 inhibition.
On the set-up of data set [2]: method as in PMID 33859333. The following applies: compared to EDME; cited from earlier work.
Data set [3] has as its target T1, hTRPML1ΔNC-YFP, a plasma membrane variant of wild-type TRPML1. The experiment in a line: TRPML1 inhibition, fluorimetric Ca2+ influx assay (Fluo-4/AM) on HEK293 cells stably expressing plasma membrane-targeted TRPML1. Type of data set: cell-based. Conditions: for TRPML1-inhibitory activity (in words) / IC50: hTRPML1ΔNC-YFP; for TRPML1-inhibitory activity (in words): Ca2+ influx assay; for IC50: HEK293 cells, Ca2+ influx, Fluo-4/AM. The source says:
The two target compounds, pyridine analog 1 and pyrimidine analog 2, as well as the inadvertently obtained pyridone analog 6 were submitted to our previously described test for inhibition of TRPML1 on hTRPML1ΔNC-YFP, a plasma membrane variant of wild-type TRPML1 by means of a fluorimetric Ca^2+ influx assay.
hTRPML1ΔNC-YFP, a plasma membrane variant of wild-type TRPML1, was obtained from HEK293 cells stably expressing plasma membrane-targeted TRPML1 by trypsination and after resuspending in HEPES buffered solution. IC50 values for TRPML1 inhibition were determined on a fluorescence imaging plate reader built into a robotic liquid handling station (Freedom Evo 150, Tecan, Mannedorf, Switzerland) using the calcium dye Fluo-4/AM (Invitrogen, Thermo Fisher Scientific, Waltham, MA, USA) according to the test procedure described in our previous work in the section Compound screening and generation of concentration–response curves.

T1 sequence (Q9GZU1 whole entry, stated change not applied): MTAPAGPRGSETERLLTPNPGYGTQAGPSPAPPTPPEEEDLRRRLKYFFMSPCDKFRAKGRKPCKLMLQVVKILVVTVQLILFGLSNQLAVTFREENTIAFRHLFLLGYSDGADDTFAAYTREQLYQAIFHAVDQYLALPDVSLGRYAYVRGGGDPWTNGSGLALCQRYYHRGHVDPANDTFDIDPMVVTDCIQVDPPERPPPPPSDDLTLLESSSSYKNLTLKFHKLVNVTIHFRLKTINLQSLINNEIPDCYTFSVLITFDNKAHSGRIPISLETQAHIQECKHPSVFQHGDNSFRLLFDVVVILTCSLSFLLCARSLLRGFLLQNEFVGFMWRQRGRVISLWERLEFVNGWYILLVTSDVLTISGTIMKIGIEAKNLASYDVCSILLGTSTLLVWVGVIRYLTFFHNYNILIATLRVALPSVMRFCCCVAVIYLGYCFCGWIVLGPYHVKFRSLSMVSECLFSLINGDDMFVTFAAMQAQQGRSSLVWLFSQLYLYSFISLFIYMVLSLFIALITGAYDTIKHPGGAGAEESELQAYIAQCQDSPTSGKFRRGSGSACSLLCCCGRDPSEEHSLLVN

`C=Cc1ccc2c(c1)CC[C@@H]1[C@@H]2CC[C@]2(C)[C@@H](O)CC[C@@H]12` [PRU-10]: the IC50 (as a rule, the point on the concentration scale where inhibition reaches its midpoint) in data set [1] was 410 nM. Also, the “estrogenic activity (in words)” value in data set [2] is “reduced estrogenic activity”.
For `COc1ncc2c(n1)CC[C@@H]1[C@@H]2CC[C@]2(C)[C@@H](O)CC[C@@H]12` [Compound 2, (4bS,6aS,7S,9aS,9bR)-2-Methoxy-6a-methyl-4b,6,6a,7,8,9,9a,9b,10,11-decahydro-5H-indeno[5,4-f]quinazolin-7-ol], in data set [3], the “TRPML1-inhibitory activity (in words)” value is “only a very weak inhibitor; also recorded: significantly lost inhibitory potency” and the IC50 was 8800 nM.
Turning to `CC(=O)c1ccc2c(c1)CC[C@@H]1[C@@H]2CC[C@]2(C)[C@@H](O)CC[C@@H]12` [PRU-12], in data set [1], the IC50 was 280 nM. Besides, the “estrogenic activity (in words)” value in data set [2] was “reduced estrogenic activity”.
For the compound `C[C@]12CC[C@@H]3c4ccc(=O)[nH]c4CC[C@H]3[C@@H]1CC[C@@H]2O` [Compound 6, (4bS,6aS,7S,9aS,9bR)-7-hydroxy-6a-methyl-1,4b,5,6,6a,7,8,9,9a,9b,10,11-dodecahydro-2H-indeno[5,4-f]quinolin-2-one], in data set [3], the “TRPML1-inhibitory activity (in words)” value was “virtually inactive” and the IC50 was 40000 nM. Further, in data set [3] (listed as pyridone analog), the “TRPML1-inhibitory activity (in words)” value was “completely inactive”.
For `C[C@]12CC[C@@H]3c4ccc(O)cc4CC[C@H]3[C@@H]1CC[C@@H]2O` [17β-estradiol], the half-maximal inhibitory concentration (IC50) in data set [1] was 5300 nM.
Turning to `COc1ccc2c(c1)CC[C@@H]1[C@@H]2CC[C@]2(C)[C@@H](O)CC[C@@H]12` [EDME, estradiol methyl ether], the IC50 in data set [3] and in data set [1] was 600 nM throughout.
On to `C#C[C@]1(O)CC[C@H]2[C@@H]3CCc4cc(OC)ccc4[C@H]3CC[C@@]21C` [mestranol], for which the “TRPML1 inhibition (in words)” value in data set [1] is listed as “considerable activity”.
Consider `COc1ccc2c(n1)CC[C@@H]1[C@@H]2CC[C@]2(C)[C@@H](O)CC[C@@H]12` [Compound 1, (4bS,6aS,7S,9aS,9bR)-2-Methoxy-6a-methyl-4b,6,6a,7,8,9,9a,9b,10,11-decahydro-5H-indeno[5,4-f]quinolin-7-ol], for which the melting point – broadly, the temperature of the solid-liquid transition – amounted to 157 °C. For the same compound, in data set [3] (compared to EDME), the “TRPML1-inhibitory activity, factor less potent than EDME” value is given as less than 2. In addition, in data set [3], it took 1000 nM to reach half-maximal inhibition (IC50).
